Some test systems named below: A498; HL-60; SK-MEL-2; CCRF-CEM; LOX IMVI; RPMI-8226; OVCAR-3; SF-539; COLO 205; Malme-3M; SK-OV-3; UACC-257; OVCAR-5; CAKI-1; NCI-H23; M14; TK-10; HCT-15; IGROV-1; HOP-92.
Experiment in all cases: NCI tumour cell line growth inhibition, 48 h

Structures are written as SMILES.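 A five-concentration, 48-hour dose response in 96-well plates underlies each endpoint, interpolated linearly between surrounding concentrations. The concentration for 50% growth inhibition is given as GI50.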 Calls of active or inactive are those of the source. Rule as the data show it: active = GI50 up to about 1.1 µM and inactive = higher.

`COc1ccc(N2CN(C)CSC2=S)cc1`: the GI50 was > 100 µM (inactive) in the assay on A498; 72.8 µM (inactive) with HL-60; > 100 µM (inactive) with SK-MEL-2; 13.1 µM (inactive) in the assay with CCRF-CEM; 86.7 µM (inactive) in the assay with LOX IMVI; 32.3 µM (inactive) in the assay with RPMI-8226. In addition, the GI50 in the assay with OVCAR-3 was 4.73 µM (inactive); with SF-539 it was > 100 µM (inactive); with COLO 205, > 100 µM (inactive); in the assay on Malme-3M, > 100 µM (inactive); in the assay with SK-OV-3, 27.1 µM (inactive); in the assay on UACC-257, > 100 µM (inactive). Moreover, the GI50 with OVCAR-5 is 71.9 µM (inactive); in the assay with CAKI-1 it was > 100 µM (inactive); in the assay with NCI-H23, > 100 µM (inactive); with M14 it was 38.5 µM (inactive); in the assay on TK-10 it was > 100 µM (inactive); with HCT-15, 76 µM. In addition, the GI50 in the assay on IGROV-1 was 77.6 µM (inactive).
`CCCOC1OC(CS(=O)(=O)O)C(OC(C)=O)C(OC(C)=O)C1OC(C)=O` (centres undefined): the GI50 in the assay on A498, in the assay with HL-60, in the assay with SK-MEL-2, in the assay with CCRF-CEM, in the assay with LOX IMVI and with RPMI-8226 was > 100 µM (inactive) each time. Further, the GI50 with OVCAR-3, in the assay on HOP-92, in the assay on COLO 205, in the assay on Malme-3M, in the assay on SK-OV-3 and in the assay on UACC-257 was > 100 µM (inactive) throughout. Further, the GI50 in the assay with OVCAR-5 was > 100 µM (inactive); with CAKI-1, > 100 µM (inactive); with NCI-H23, > 100 µM (inactive); with M14, > 100 µM (inactive); with TK-10, > 100 µM (inactive); in the assay on HCT-15, > 100 µM. In the assay on IGROV-1, the GI50 is > 100 µM (inactive).
As to `COC(=O)Cc1c(-c2c(CC(=O)OC)c3ccccc3n2C2OC(COC(C)=O)C(OC(C)=O)C(OC(C)=O)C2OC(C)=O)[nH]c2ccccc12` (centres undefined), the GI50 in the assay with A498 was 52.4 µM (inactive); in the assay with SK-MEL-2 it was > 100 µM (inactive); in the assay on CCRF-CEM it was > 100 µM (inactive); in the assay with RPMI-8226, > 100 µM (inactive); in the assay with OVCAR-3 it was > 100 µM (inactive); in the assay on HOP-92 it was > 100 µM (inactive). Besides, the GI50 in the assay on COLO 205, in the assay on Malme-3M, in the assay on SK-OV-3, in the assay on UACC-257, in the assay with OVCAR-5 and in the assay with CAKI-1 was > 100 µM (inactive) in each case. The GI50 in the assay on NCI-H23 was > 100 µM (inactive); in the assay with M14, > 100 µM (inactive); with TK-10, > 100 µM (inactive); with HCT-15, > 100 µM; in the assay with IGROV-1, 74.6 µM (inactive).
Turning to `O=C1CCC(c2ccc(Cl)cc2)=NN1c1nsc2ccccc12`, the GI50 with HL-60 is 20 µM (inactive); with SK-MEL-2, 19.1 µM (inactive); in the assay on CCRF-CEM it was 17.7 µM (inactive); with LOX IMVI it was > 10 µM (inactive); in the assay with RPMI-8226, 19.3 µM (inactive); with OVCAR-3 it was 17.7 µM (inactive). Also, the GI50 in the assay on SF-539 is 48.4 µM (inactive); in the assay on HOP-92, 21.5 µM (inactive); in the assay on COLO 205 it was 36.5 µM (inactive); in the assay on UACC-257, 22.9 µM (inactive); in the assay on OVCAR-5, 51.2 µM (inactive); in the assay with NCI-H23, 26.7 µM (inactive). Further, the GI50 with M14 was > 10 µM (inactive); in the assay on TK-10, 46.3 µM (inactive); with HCT-15, > 10 µM; with IGROV-1, 39.4 µM (inactive).
For `O=C(N/N=C\c1cccc2ccccc12)Nc1ccccc1`, the GI50 with A498 was > 100 µM (inactive); in the assay on HL-60 it was > 10 µM (inactive); in the assay with SK-MEL-2 it was > 100 µM (inactive); in the assay on CCRF-CEM, > 100 µM (inactive); in the assay with LOX IMVI, > 100 µM (inactive); with RPMI-8226, > 100 µM (inactive). Also, the GI50 with OVCAR-3, in the assay with HOP-92, in the assay with COLO 205, in the assay on Malme-3M, with SK-OV-3 and with UACC-257 was > 100 µM (inactive) in each case. For the same compound, the GI50 with OVCAR-5 was > 100 µM (inactive); in the assay on CAKI-1 it was > 100 µM (inactive); in the assay with NCI-H23, > 100 µM (inactive); in the assay on M14, > 100 µM (inactive); in the assay with TK-10, > 100 µM (inactive); with HCT-15, > 100 µM. The GI50 with IGROV-1 was > 100 µM (inactive).
On to `COc1ccc(-c2c3ccccc3c(-c3ccc(OCCCCCBr)cc3)c3ccccc23)cc1`, for which the GI50 in the assay with HL-60, in the assay on SK-MEL-2, in the assay on CCRF-CEM, in the assay with LOX IMVI, in the assay on RPMI-8226 and in the assay with OVCAR-3 was > 100 µM (inactive) throughout. The GI50 with SF-539, in the assay with HOP-92, in the assay with COLO 205, in the assay on Malme-3M, in the assay with SK-OV-3 and with OVCAR-5 was > 100 µM (inactive) throughout. Also, the GI50 in the assay with CAKI-1 was > 100 µM (inactive); with M14 it was > 100 µM (inactive); in the assay on TK-10, > 100 µM (inactive); in the assay with HCT-15, > 100 µM; with IGROV-1 it was > 100 µM (inactive).
Regarding `Cc1ccc(S(=O)(=O)NCCCSCCSCCCN)cc1`, the GI50 in the assay with A498, with HL-60, in the assay on CCRF-CEM, in the assay on LOX IMVI, in the assay with OVCAR-3 and in the assay on HOP-92 was > 100 µM (inactive) each time. Also, the GI50 with COLO 205, in the assay on SK-OV-3, in the assay on UACC-257, in the assay with NCI-H23, in the assay with M14 and in the assay on TK-10 was > 100 µM (inactive) in each case. Besides, the GI50 in the assay on HCT-15 is > 100 µM.
For the compound `Cc1ccc2c(=O)c3ccccc3sc2c1`, the GI50 in the assay on HL-60 is 26.9 µM (inactive); with CCRF-CEM, > 100 µM (inactive); in the assay with LOX IMVI it was > 100 µM (inactive); in the assay on RPMI-8226, > 100 µM (inactive); in the assay on OVCAR-3, > 100 µM (inactive); in the assay on SF-539, > 100 µM (inactive). In addition, the GI50 with COLO 205 was > 100 µM (inactive); in the assay with Malme-3M, > 100 µM (inactive); with SK-OV-3, > 100 µM (inactive); with OVCAR-5 it was > 100 µM (inactive); in the assay with CAKI-1 it was 45.4 µM (inactive); in the assay with NCI-H23, > 100 µM (inactive). Also, the GI50 with M14, in the assay on TK-10 and in the assay with IGROV-1 was > 100 µM (inactive) in each case.
Consider `CCCCCCCCCCCCCCCC(=O)OC1C(O)C(CO)OC(OC)C1NC(=O)N(CCCl)N=O` (centres undefined), for which the GI50 is 23.9 µM (inactive) with SK-MEL-2; 11.4 µM (inactive) in the assay with LOX IMVI; 21.1 µM (inactive) in the assay with RPMI-8226; 18.7 µM (inactive) in the assay with OVCAR-3; 1.08 µM (active) with SF-539; 18.7 µM (inactive) with COLO 205. Moreover, the GI50 in the assay on UACC-257 was 16.3 µM (inactive); in the assay with OVCAR-5, 16.5 µM (inactive); with CAKI-1, 32 µM (inactive); in the assay on NCI-H23, 7.94 µM (inactive); with M14, 18.4 µM (inactive); in the assay with TK-10 it was 15.5 µM (inactive). Further, the GI50 in the assay with HCT-15 is 23.7 µM; in the assay with IGROV-1, 17.4 µM (inactive).

For the origin of these results see ChEMBL document CHEMBL1201862, “PubChem BioAssay data set” (2004).
